Experiments:
human 5-HT1A receptor [1] = molecular target: T1, human 5-HT1A receptor (Homo sapiens (Human), UniProt P08908); assay: Test 2: agonist activity for human 5-HT1A receptor ([35S]GTPγS binding); assay type: biochemical; conditions: for EC50: [35S]GTPγS binding, concentration at which half the activity of Emax was obtained; for Emax at 10 µM: agonist activity in the presence of 10 μM of compound, relative to 100 μmol/L 5-HT
Description: Test 2: Evaluation of Agonist Activity for Human 5-HT1A Receptor
CHO cell membrane fraction in which human 5-HT1A receptor was expressed as used in Test 1 was purchased. To a buffer containing guanosine diphosphate were added a test compound dissolved in DMSO, each receptor membrane sample diluted with buffer, and [^35S] Guanosine 5′-O-[gamma-thio]triphosphate (GTPγS). The mixture was incubated at room temperature for 60 minutes. Then, the mixture was added quickly on a glassfiber filter plate (Multiscreen FB, Millipore, Inc.), and vacuum-filtered. Radioactivity remaining on the […] was measured with a liquid scintillation counter. Agonist activity was calculated from the following formula.

human D2 receptor = human D2 receptor (Homo sapiens (Human), UniProt P14416); assay: Test 1: binding activity for human D2 receptor ([3H]Spiperone, CHO cell membrane fraction); conditions: human D2 receptor, [3H]Spiperone
Sequence of human D2 receptor (P14416 whole entry): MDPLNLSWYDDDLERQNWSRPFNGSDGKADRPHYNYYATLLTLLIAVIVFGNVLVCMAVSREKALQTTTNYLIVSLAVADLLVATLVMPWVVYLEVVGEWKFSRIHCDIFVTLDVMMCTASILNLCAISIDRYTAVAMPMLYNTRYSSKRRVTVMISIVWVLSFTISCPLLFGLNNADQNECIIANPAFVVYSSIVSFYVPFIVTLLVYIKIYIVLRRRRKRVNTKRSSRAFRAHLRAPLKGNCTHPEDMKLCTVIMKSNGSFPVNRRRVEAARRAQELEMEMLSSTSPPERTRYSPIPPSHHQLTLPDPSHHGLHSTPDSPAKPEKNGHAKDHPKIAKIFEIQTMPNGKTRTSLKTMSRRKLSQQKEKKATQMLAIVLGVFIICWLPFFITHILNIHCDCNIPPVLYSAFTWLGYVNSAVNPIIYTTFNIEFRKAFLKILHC
Description: (§1) Test 1: Evaluation of Binding Activity for Human 5-HT1A Receptor, Human 5-HT2A Receptor, and Human D2 Receptor
(§2) Binding affinity of the present compound for human 5-HT1A receptor, human 5-HT2A receptor, and human D2 receptor was measured by the following procedures.
(§3) Each mixture was incubated at room temperature for 60 minutes. Then, the mixture was added quickly on a glassfiber filter plate (Multiscreen FB, Millipore, Inc.) coated with 0.3% aqueous polyethylenimine, and vacuum-filtered. Radioactivity remaining on the filter was measured with a liquid scintillation counter (PerkinElmer, Inc.). Binding inhibition rate was calculated from the following formula.
Ki of each compound was calculated from the following formula. Binding inhibition constant (Ki)=IC50/(1+S/Kd) wherein S is concentration of ligand; Kd is a binding dissociation constant of ligand to membrane, which is calculated from a saturated binding experiment conducted with the same cell membrane. A small Ki value means strong binding ability to a receptor.

human 5-HT1A receptor [2] = molecular target: T1, human 5-HT1A receptor; assay: Test 1: binding activity for human 5-HT1A receptor ([3H]8-OH-DPAT, CHO cell membrane fraction)
Description: as §1, §2, §3
IC50 value was calculated by Hill analysis (Physiology, 1910, 40, 190-200). Ki of each compound was calculated from the following formula. Binding inhibition constant (Ki)=IC50/(1+S/Kd) wherein S is concentration of ligand; Kd is a binding dissociation constant of ligand to membrane, which is calculated from a saturated binding experiment conducted with the same cell membrane. A small Ki value means strong binding ability to a receptor.

[3] = Test 4: metabolic stability test in human hepatic microsome; assay type: in vitro ADME; conditions: 0.1 mg/mL microsome, 0.1 μmol/L compound, 37° C., 30 minutes
Description: Test 4: Metabolic Stability Test in Human Hepatic Microsome
The stability of the present compound in human hepatic microsome metabolism was evaluated as mentioned below. Human hepatic microsome was obtained from Xenontech. Human hepatic microsome, NADPH, and each test compound were mixed in 25 mmol/L phosphate buffer solution (pH 7.4) to reach the following concentrations as shown below, and the mixture was incubated at 37° C. for 30 minutes. • Human hepatic microsome: 0.1 mg/mL • NAPDH: 3.2 mmol/L • Test compound: 0.1 μmol/L
The residual ratio of the test compound in each sample after 30 minutes was measured by LC-MS, and the metabolic stability in human hepatic microsome was calculated from the following formula. Metabolic stability in human hepatic microsome (mL/min/mg protein)=−LN (residual ratio)/30/0.1

hERG channel = hERG channel (Homo sapiens (Human), UniProt Q12809); assay: Test 6-1: inhibitory activity for hERG channel (auto patch clamp, Qpatch); assay type: cell-based; conditions: whole cell auto patch clamp, hERG-CHO cells; read-out: hERG inhibition IC50
Sequence of hERG channel (Q12809 whole entry): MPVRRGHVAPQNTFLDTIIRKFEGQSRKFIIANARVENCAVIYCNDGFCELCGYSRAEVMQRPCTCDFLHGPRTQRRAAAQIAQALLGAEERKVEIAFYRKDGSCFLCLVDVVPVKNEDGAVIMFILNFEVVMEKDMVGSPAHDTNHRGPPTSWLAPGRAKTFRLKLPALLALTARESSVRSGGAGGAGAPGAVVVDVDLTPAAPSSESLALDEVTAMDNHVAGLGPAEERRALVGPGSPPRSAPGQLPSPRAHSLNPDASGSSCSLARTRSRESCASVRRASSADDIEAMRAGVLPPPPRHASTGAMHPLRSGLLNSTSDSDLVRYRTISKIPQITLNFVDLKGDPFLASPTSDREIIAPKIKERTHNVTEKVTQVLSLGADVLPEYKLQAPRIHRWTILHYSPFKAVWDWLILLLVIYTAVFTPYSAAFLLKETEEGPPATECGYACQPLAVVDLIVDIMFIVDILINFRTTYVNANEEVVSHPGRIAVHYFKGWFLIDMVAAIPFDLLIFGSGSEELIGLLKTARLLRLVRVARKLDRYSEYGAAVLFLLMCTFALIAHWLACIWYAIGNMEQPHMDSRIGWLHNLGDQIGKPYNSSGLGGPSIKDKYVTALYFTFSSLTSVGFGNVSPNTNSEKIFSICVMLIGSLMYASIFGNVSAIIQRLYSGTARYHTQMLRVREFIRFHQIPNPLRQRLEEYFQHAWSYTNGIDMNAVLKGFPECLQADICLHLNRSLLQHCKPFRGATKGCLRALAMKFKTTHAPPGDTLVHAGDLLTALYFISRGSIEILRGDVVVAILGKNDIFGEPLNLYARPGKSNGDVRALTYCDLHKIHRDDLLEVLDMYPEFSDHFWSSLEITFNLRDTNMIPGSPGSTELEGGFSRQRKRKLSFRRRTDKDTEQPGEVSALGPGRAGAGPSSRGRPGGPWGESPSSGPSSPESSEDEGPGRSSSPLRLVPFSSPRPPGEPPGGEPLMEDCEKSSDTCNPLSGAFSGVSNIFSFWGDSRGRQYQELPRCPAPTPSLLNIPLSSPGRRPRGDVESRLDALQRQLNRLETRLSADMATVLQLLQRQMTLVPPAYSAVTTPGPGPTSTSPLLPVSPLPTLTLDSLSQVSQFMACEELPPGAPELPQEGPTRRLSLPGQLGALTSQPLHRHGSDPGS
Description: Test 6-1: Evaluation of Inhibitory Activity for hERG Channel
Inhibitory activity of the present compound for hERG channel was measured by whole cell patch clamp method with an auto patch clamp system using CHO cells in which hERG channel involved in human rapidly activating delayed rectifier potassium current (IKr) was forcibly expressed.
hERG-CHO cells purchased from ChanTest Cop. were cultured in a CO2 incubator at 37° C., and dissociated from a flask with trypsin shortly before the measurement of hERG current, to prepare a cell suspension.
Extracellular fluid: 2 mmol/L CaCl2, 1 mmol/L MgCl2, 10 mmol/L HEPES, 4 mmol/L KCl, 145 mmol/L NaCl, 10 mmol/L Glucose
Intracellular fluid: 5.4 mmol/L CaCl2, 1.8 mmol/L MgCl2, 10 mmol/L HEPES, 31 mmol/L KOH, 10 mmol/L EGTA, 120 mmol/L KCl, 4 mmol/L Na2-ATP
Test compound solution: Test compound was dissolved in DMSO to reach the concentration of 2 mmol/L or 20 mmol/L, in order to prepare a test compound solution. […] (Measurement of Current Value and Data Analysis)
The cell suspension, the extracellular fluid, the intracellular fluid, and the measurement plate were set in the auto patch clamp system, and hERG current was measured by whole cell patch clamp method. […] Each pulse interval was 15 seconds. The data analysis was carried out with Qpatch Assay Software (Biolin Scientific). The test was carried out by applying incrementally 4 concentrations of each test compound, and the average of the maximum peak tail currents which were obtained from the last 3 stimulations in each concentration was determined as the evaluated data. Based on the current inhibition rate for a pre-applied current at each concentration of each test compound, IC50 value was calculated by Hill equation with the software.

T1 sequence (P08908 whole entry): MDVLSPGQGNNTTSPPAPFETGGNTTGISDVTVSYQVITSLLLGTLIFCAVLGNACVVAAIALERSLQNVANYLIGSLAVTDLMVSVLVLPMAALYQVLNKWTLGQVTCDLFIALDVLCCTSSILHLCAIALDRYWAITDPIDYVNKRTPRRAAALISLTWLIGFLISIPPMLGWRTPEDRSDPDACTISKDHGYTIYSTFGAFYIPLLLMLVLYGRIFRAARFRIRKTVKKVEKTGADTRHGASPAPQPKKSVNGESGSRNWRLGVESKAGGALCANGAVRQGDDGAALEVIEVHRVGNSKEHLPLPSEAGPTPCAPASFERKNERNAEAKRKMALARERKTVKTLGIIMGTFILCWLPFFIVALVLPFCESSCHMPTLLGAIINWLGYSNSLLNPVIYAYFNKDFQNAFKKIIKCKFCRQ

Row | SMILES | EC50 (human 5-HT1A receptor [1]) | Emax at 10 µM (human 5-HT1A receptor [1]) | Ki (human D2 receptor) | Ki (human 5-HT1A receptor [2]) | Metabolic stability in human hepatic microsome [3] | IC50 (hERG channel)
1 | O=C1c2cn(-c3ccccc3)nc2CCN1CCN1CCN(c2nsc3ccccc23)CC1 [Example 168] | 100 nM | 52% | 145 nM | 1.02 nM | 0.924 mL/min/mg protein | < 300 nM
2 | Cn1cnc2c1CCN(CCN1CCC(c3noc4ccccc34)CC1)C2=O [Example 16] | 300 nM | 40% | 34000 nM | 18.6 nM | <0.01 mL/min/mg protein | > 10000 nM
3 | Cn1ncc2c1CCC(CCN1CCN(c3nsc4ccccc34)CC1)C2=O (stereo not drawn) [Example 29] | 64.5 nM | 42% | 143 nM | 0.68 nM | 0.063 mL/min/mg protein | 2300 nM
4 | Cn1ccc2c1CCN(CCN1CCN(c3noc4ccccc34)CC1)C2=O [Example 170] | 823 nM | 42% | 1680 nM | 35.2 nM | <0.05 mL/min/mg protein | 7400 nM
5 | O=c1c2ncccc2ccn1CCN1CCN(c2noc3ccccc23)CC1 [Example 117] | 570 nM | 40% | 1740 nM | 36.6 nM | <0.05 mL/min/mg protein | 4400 nM
6 | O=C1c2c(Br)n[nH]c2CCN1CCN1CCC(c2noc3ccccc23)CC1 [Example 192, 5-{2-[4-(1,2-Benzoisoxazol-3-yl)piperidin-1-yl]ethyl}-3-bromo-1,5,6,7-tetrahydro-4H-pyrazolo[4,3-c]pyridin-4-one] | 7670 nM | 11% | 219 nM | 200 nM | <0.05 mL/min/mg protein | 700 nM
7 | O=C1c2cn[nH]c2CCCN1CCN1CCC(c2noc3ccccc23)CC1 [Example 97, 5-{2-[4-(1,2-Benzoisoxazol-3-yl)piperidin-1-yl]ethyl}-5,6,7,8-tetrahydropyrazolo[4,3-c]azepin-4(1H)-one] | 447 nM | 42% | 136 nM | 17.6 nM | <0.01 mL/min/mg protein | 2600 nM

Stronger by EC50 (human 5-HT1A receptor [1]), values ahead:

Row | EC50 (human 5-HT1A receptor [1]) | Emax at 10 µM (human 5-HT1A receptor [1]) | Ki (human D2 receptor) | Ki (human 5-HT1A receptor [2]) | Metabolic stability in human hepatic microsome [3] | SMILES | IC50 (hERG channel)
8 | 42.1 nM | 51% | 780 nM | 6.9 nM | 0.092 mL/min/mg protein | O=C1c2cncnc2CCN1CCN1CCN(c2nsc3ccccc23)CC1 [Example 58] | 6000 nM
9 | 11 nM | 67% | 766 nM | 2.4 nM | 0.118 mL/min/mg protein | CCn1cc2c(n1)CCN(CCN1CCN(c3nsc4ccccc34)CC1)C2=O [Example 163] | 1400 nM
10 | 9.8 nM | 63% | 134 nM | 1.7 nM | 0.056 mL/min/mg protein | Cn1ccc2c1CCN(CCN1CCN(c3nsc4ccccc34)CC1)C2=O [Example 61] | > 10000 nM
11 | 7.67 nM | 64% | 244 nM | 0.08 nM | 0.210 mL/min/mg protein | [2H]C([2H])([2H])Oc1cc2c(cn1)C(=O)N(CCN1CCN(c3nsc4ccccc34)CC1)CC2([2H])[2H] [Example 107, 2-{2-[4-(1,2-Benzoisothiazol-3-yl)piperazin-1-yl]ethyl}-6-[(^2H3)methyloxy] (4,4-^2H2)-3,4-dihydro-2,7-naphthyridin-1(2H)-one] | 1700 nM
12 | 7.32 nM | 57% | 1560 nM | 0.51 nM | 0.055 mL/min/mg protein | CC1CN(CCN2CCC(c3noc4ccccc34)CC2)C(=O)c2ncccc21 (stereo not drawn) [Example 15] | 1600 nM
13 | 6.7 nM | 68% | 690 nM | 0.75 nM | 0.378 mL/min/mg protein | COc1cc2c(cn1)CCN(CCN1CCN(c3nsc4ccccc34)CC1)C2=O [Example 19] | 5200 nM
14 | 6.14 nM | 54% | 62 nM | 1.4 nM | <0.05 mL/min/mg protein | Cc1cc2c(cn1)C(=O)N(CCN1CCC(c3noc4ccccc34)CC1)CC2 [Example 135] | 700 nM
15 | 2.08 nM | 61% | 993 nM | 0.23 nM | 0.074 mL/min/mg protein | Cc1nc2c(o1)CCN(CCN1CCN(c3nsc4ccccc34)CC1)C2=O [Example 51] | 5100 nM
16 | 1.99 nM | 64% | 93 nM | 0.41 nM | 0.358 mL/min/mg protein | CCc1cc2c(cn1)C(=O)N(CCN1CCN(c3nsc4ccccc34)CC1)CC2 [Example 104, 2-{2-[4-(1,2-Benzoisothiazol-3-yl)piperazin-1-yl]ethyl}-6-ethyl-3,4-dihydro-2,7-naphthyridin-1(2H)-one] | 700 nM
17 | 1.3 nM | 78% | 605 nM | 0.24 nM | 0.119 mL/min/mg protein | CC1CN(CCN2CCN(c3nsc4ccccc34)CC2)C(=O)c2cnn(C)c21 (stereo not drawn) [Example 77] | 4600 nM
